Data on three compounds can be found in patent US6562802B2, “Medical composition and uses thereof” (Noviscens AB, priority 1996, dated 2003).

One data set has as its system UV B radiation. The data set can be described thus: biological light protection factor against UV B radiation, erythema score on skin of volunteers. The format is in vivo, human. The note with it: 5.0% (w/w) in petrolatum, light exposure for 16 and 32 seconds, two volunteers. As to the method:
The biological light protection factor of the sunscreen formulation was determined at two concentrations of the active agent, P-PABA. The two formulations were prepared and tested at a concentration of 5.0% and 10% (w/w). For comparison, one control sunscreen agent was also studied. The UV B protection agent, ethylhexyl-4-dimethylaminobenzoic acid (EHD-PABA) was prepared at a concentration of 5.0% (w/w) in petrolatum. The test was performed on the skin of two volunteers, under standardized conditions by application of 0.1 ml of the formulation per 100 cm^2 of skin area on their backs.
An Osram Ultravitalux lamp was used as light source. The light protection factor was determined and compared to vehicle and untreated skin after light exposure on cylindrical (1.0 cm i.d.) skin areas for 16 and 32 seconds. The results were evaluated from intensity of the erythema score (FIG. 8; A) untreated control, b) 10% P-PABA, c) 5% P-PABA, D) vehicle, and E) EHD-PABA. Light exposure as indicated on each skin area for 16 seconds (left) and 32 seconds (right)). The biological protection against UV B radiation obtained by the UV B standard EHD-PABA absorber was almost similar to the protection by the polymeric P-PABA derivative.

The nature of data set [1]: sunscreen index according to Kumler (UV absorbing characteristics). The format is physicochemical.

On to `CCCCC(CC)COC(=O)c1ccc(N(C)C)cc1` (stereo not shown) [EHD-PABA, ethylhexyl-4-dimethylaminobenzoic acid], for which the “protection against UV B radiation (erythema score)” value in the data set with UV B radiation is “insufficient at 32 seconds in one of the volunteers”. Consider `Nc1ccc(C(=O)O)cc1` [p-aminobenzoic acid (reference), p-aminobenzoic acid], for which the Sunscreen index in data set [1] is 7.4. Turning to PE-N-aminobenzoic acid [P-PABA], in the data set with UV B radiation, the “protection against UV B radiation (erythema score)” value was “complete”. The compound also had a Sunscreen index in data set [1] of 6.2.
